Results: US5552156A, “Liposomal and micellular stabilization of camptothecin drugs” (Ohio State University, priority 1995, dated 1996)
Where “and” joins values, the source holds several entries; their conditions need not be identical. Equal values may be shown once.

Tests used:
[1] = Relative lipophilicity of camptothecin drugs; settings: among drugs of Table V
[2] = Iodide quenching of camptothecin fluorescence; type: physicochemical
Source text: Additional evidence that the fluorochrome of the camptothecin drugs penetrates into the membrane of the liposome comes from iodide quenching data. Iodide has an immeasurably small permeation of the liposome membrane and is able to discriminate between camptothecin drug molecules free in solution and those molecules located in the interior of the liposome membrane. These methods have been described in detail in Burke and Tritton, Biochemistry (1985) 24: 5972-5980; G. L. Jendrasiak, Chem. Phys. Lipids 9: 133-146 (1992); and, M. Cranney et al. Biochem. Biophys. ACTA 735, 418-425, which are incorporated herein by reference. The quenching studies were conducted using 0.5M iodide in PBS buffer.
The quenching of fluorescence of both camptothecin free in PBS and liposome membrane bound camptothecin by iodide ions was conducted at a constant halide concentration of 0.5M, in the presence of 2 mM sodium thiosulfate to prevent the oxidation of iodide. The camptothecin concentration was 1×10^-6 M and the iodide concentration was varied from 0 to 0.5M, and the chloride concentration was adjusted accordingly. The quenching experiments for the camptothecin bound to DMPC or DMPG liposome membranes were done at a lipid concentration of 100 mg/mL, so that the fraction of the bound camptothecin was more than 97%.
Fluorescence of the liposome membrane bound camptothecin is quenched to relatively lower extent, for instance, F0 /F, for camptothecin bound to DMPC liposomes is only 4.1 (see Plot C). Also, there is a clear cut upward curvature in the F0 /F vs. [I] plot (curve "A", […]) for camptothecin free in PBS whereas F0 /F vs. [I] plot for camptothecin bound with DMPC membranes is linear. Quenching of fluorescence is believed to proceed via the dynamic (or collisional) and static quenching processes. Fluorescence quenching by a quencher molecule in contact with the fluorophore at the instant of excitation is considered to be static quenching. The static and dynamic quenching processes are separated by the following modified form of the Stern-Volmer equation (Eftink & Ghiron, 1976): […]
where, V is the static quenching constant and Ksv the dynamic or collisional quenching constant. The V and Ksv values were obtained by fitting the quenching data to equation 3 with a value of V which gave the best correlation coefficient for the plot of F0 /Fe^v[Q] vs. [Q]. The upward curvature of the quenching data of free camptothecin free in PBS seen in FIG. 8 could be attributed to the static quenching process. The straight line "B", which is tangential to the F0 /F vs. [I] plot for free camptothecin in PBS, represents the dynamic part of the iodide quenching of camptothecin fluorescence, the slope of which is equal to Ksv (slope=44 3M^-1 where V=14M^-1 correlation coefficient=0.9993). The Stern-Volmer plot for the liposome bound camptothecin is linear, curve "C", FIG. 8, the slope being 6.1M^-1. […] The dashed line represents the static and dynamic quenching components camptothecin free in solution is determined by F0 /F values.

[3] = tested on: lung, breast, and malignant melanoma; settings: background; cited from earlier work
[4] = bound to DMPC liposomes, iodide

CCC1(O)C(=O)OCc2c1cc1n(c2=O)Cc2cc3c(Cl)c4c(cc3nc2-1)OCO4 (centres unmarked) [9-chloro-10,11-methylenedioxycamptothecin]
relative lipophilicity [1]: most lipophilic

CC[C@@]1(O)C(=O)OCc2c1cc1n(c2=O)Cc2cc3ccccc3nc2-1 [camptothecin]
fraction of bound camptothecin in quenching experiments ([2]; DMPC or DMPG, lipid 100 mg/mL): more than 97%
F0/F (iodide quenching), DMPC-bound ([2]; bound to DMPC liposomes, 0.5M iodide): 4.1
dynamic quenching constant Ksv (slope), DMPC-bound [2, 4]: 6.1 M⁻¹ and 6.2 M⁻¹
static quenching constant V, DMPC-bound [2, 4]: 0 M⁻¹
F0/F (iodide quenching), free ([2]; free in PBS pH 7.4, 0.5M iodide): about 54.3
dynamic quenching constant Ksv, free ([2]; free in PBS, iodide): 44.3 M⁻¹
effectiveness against other experimental cancer types [3]: effective against other experimental cancer types such as lung, breast, and malignant melanoma
